What follows are compounds tested against T1, PIP4K2C (Homo sapiens, UniProt Q8TBX8) (assay: HiBiT PIP4K2C degradation assay in MOLT-4 cells (endogenous PIP4K2C C-terminally tagged with HiBiT)). Details: 6 hours of incubation time, rather than 24 hours; MOLT-4, top concentration 10 micromolar; read-out: HiBIT-degradation MOLT4 PIP4k2C DC50 (6 hours, marked *).
T1 sequence (Q8TBX8 1-421): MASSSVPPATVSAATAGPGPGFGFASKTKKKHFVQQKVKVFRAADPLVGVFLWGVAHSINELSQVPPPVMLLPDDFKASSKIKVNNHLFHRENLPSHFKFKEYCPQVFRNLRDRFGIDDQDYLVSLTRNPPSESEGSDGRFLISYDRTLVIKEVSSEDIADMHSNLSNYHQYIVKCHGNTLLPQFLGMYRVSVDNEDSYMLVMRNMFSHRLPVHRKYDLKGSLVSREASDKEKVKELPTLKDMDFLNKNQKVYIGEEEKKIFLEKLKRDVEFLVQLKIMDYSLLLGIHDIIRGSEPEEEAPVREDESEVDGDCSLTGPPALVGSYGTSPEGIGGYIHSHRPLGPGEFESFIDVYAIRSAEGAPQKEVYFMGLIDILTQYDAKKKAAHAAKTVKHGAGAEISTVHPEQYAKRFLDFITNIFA
Format: cell-based
Parameters: untagged in primary human PBMCs and monocyte-derived dendritic cells
Method in brief: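 Endogenous PIP4K2C was C-terminally HiBiT-tagged by CRISPR-Cas9 in MOLT-4 cells, which were treated with a 10-point, 3-fold dilution series from 10 micromolar in duplicate for 24 or 6 hours at 37 C. Remaining protein was read by HiBiT lytic luminescence, and DC50 came from a Hill fit.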

DC50 [nM] | SMILES
< 500 | O=C1CC[C@H](Nc2ccc(N3CCN([C@H]4CC[C@H](C(=O)N[C@H]5CC[C@H](Nc6ncc(F)c(-c7cccc(-n8ccccc8=O)c7)n6)CC5)CC4)CC3)c(F)c2)C(=O)N1 (single isomer, unassigned) [Compound 603]
< 500 | Cn1nc([C@@H]2CCC(=O)NC2=O)c2ccc(C3CCN(CC4CCN(C(=O)O[C@H]5CC[C@H](Nc6ncc(F)c(-c7cccc(-n8ccccc8=O)c7)n6)CC5)CC4)CC3)cc21 (single isomer, unassigned) [Compound 638]
< 500 | Cn1nc([C@H]2CCC(=O)NC2=O)c2ccc(C3CCN(CC4CCN(C(=O)O[C@H]5CC[C@H](Nc6ncc(F)c(-c7cccc(-n8ccccc8=O)c7)n6)CC5)CC4)CC3)cc21 (single isomer, unassigned) [Compound 639]

Same assay, conditions: 24 hours incubation, MOLT-4, top concentration 10 micromolar; read-out: HiBIT-degradation MOLT4 PIP4k2C 24 hours DC50

SMILES | DC50 [nM]
O=C1CCC(N2Cc3cc(OC4CCN(C(=O)C5CCN(C(=O)C6CCC[C@@H](Nc7ncc(Cl)c(-c8cccc(-c9ccccc9)c8)n7)C6)CC5)CC4)ccc3C2=O)C(=O)N1 (stereo in doubt) [Compound 77, cis-3-(5-((1-(1-(3-((4-([1,1′-biphenyl]-3-yl)-5-chloropyrimidin-2-yl)amino)cyclohexane-1-carbonyl)piperidine-4-carbonyl)piperidin-4-yl)oxy)-1-oxoisoindolin-2-yl)piperidine-2,6-dione] | < 500
O=C1CCC(Nc2ccc(C3CCN(C[C@H]4CC[C@H](NC(=O)[C@H]5CCC[C@@H](Nc6ncc(F)c(-c7cccc(-n8ccccc8=O)c7)n6)C5)CC4)CC3)c(F)c2)C(=O)N1 (stereo in doubt) [Compound 324, trans-N-(cis-4-((4-(4-((2,6-dioxopiperidin-3-yl)amino)-2-fluorophenyl)piperidin-1-yl)methyl)cyclohexyl)-3-((5-fluoro-4-(3-(2-oxopyridin-1(2H)-yl)phenyl)pyrimidin-2-yl)amino)cyclohexane-1-carboxamide] | < 500
Cn1c(=O)n(C2CCC(=O)NC2=O)c2ccc(C3CCN(CC4CCN(CC(=O)N5CCC(Nc6ncc(Cl)c(-c7cccc(-c8ccccc8)c7)n6)CC5)CC4)CC3)cc21 (centres unmarked) [Compound 47, 3-(5-(1-((1-(2-(4-((4-([1,1′-biphenyl]-3-yl)-5-chloropyrimidin-2-yl)amino)piperidin-1-yl)-2-oxoethyl)piperidin-4-yl)methyl)piperidin-4-yl)-3-methyl-2-oxo-2,3-dihydro-1H-benzo[d]imidazol-1-yl)piperidine-2,6-dione] | < 500
O=C1CCC(Nc2ccc(C3CCN(C4CCN(CCC(=O)N5CCC(Nc6ncc(Cl)c(-c7cccc(-c8ccccc8)c7)n6)CC5)CC4)CC3)cc2)C(=O)N1 (centres unmarked) [Compound 48, 3-((4-(1′-(3-(4-((4-([1,1′-biphenyl]-3-yl)-5-chloropyrimidin-2-yl)amino)piperidin-1-yl)-3-oxopropyl)-[1,4′-bipiperidin]-4-yl)phenyl)amino)piperidine-2,6-dione] | < 500
O=C(COc1cccc2c1CN(C1CCC(=O)NC1=O)C2=O)NCCCCC(=O)N1CCC(C(=O)N2CCC(Nc3ncc(Cl)c(-c4cccc(-c5ccccc5)c4)n3)CC2)CC1 (centres unmarked) [Compound 69, N-(5-(4-(4-((4-([1,1′-biphenyl]-3-yl)-5-chloropyrimidin-2-yl)amino)piperidine-1-carbonyl)piperidin-1-yl)-5-oxopentyl)-2-((2-(2,6-dioxopiperidin-3-yl)-1-oxoisoindolin-4-yl)oxy)acetamide] | < 500
O=C1CCC(N2Cc3cc(C4CCN(C5CCN(CC(=O)N6CCC(Nc7ncc(Cl)c(-c8cccc(-c9ccccc9)c8)n7)CC6)CC5)CC4)ccc3C2=O)C(=O)N1 (centres unmarked) [Compound 71, 3-(5-(1′-(2-(4-((4-([1,1′-biphenyl]-3-yl)-5-chloropyrimidin-2-yl)amino)piperidin-1-yl)-2-oxoethyl)-[1,4′-bipiperidin]-4-yl)-1-oxoisoindolin-2-yl)piperidine-2,6-dione] | < 500
Cn1c(=O)n(C2CCC(=O)NC2=O)c2ccc(C3CCN(C4CCN(CC(=O)N5CCC(Nc6ncc(Cl)c(-c7cccc(-c8ccccc8)c7)n6)CC5)CC4)CC3)cc21 (centres unmarked) [Compound 72, 3-(5-(1′-(2-(4-((4-([1,1′-biphenyl]-3-yl)-5-chloropyrimidin-2-yl)amino)piperidin-1-yl)-2-oxoethyl)-[1,4′-bipiperidin]-4-yl)-3-methyl-2-oxo-2,3-dihydro-1H-benzo[d]imidazol-1-yl)piperidine-2,6-dione] | < 500

Now from value to compound:

DC50 [nM] | SMILES
< 500 | Cn1c(=O)n(C2CCC(=O)NC2=O)c2ccc(C3CCN(CCN4CCC(C(=O)N5CCC[C@H](Nc6ncc(Cl)c(-c7cccc(-c8ccccc8)c7)n6)C5)CC4)CC3)cc21 (stereo partly drawn) [Compound 44, 3-(5-(1-(2-(4-((S)-3-((4-([1,1′-biphenyl]-3-yl)-5-chloropyrimidin-2-yl)amino)piperidine-1-carbonyl)piperidin-1-yl)ethyl)piperidin-4-yl)-3-methyl-2-oxo-2,3-dihydro-1H-benzo[d]imidazol-1-yl)piperidine-2,6-dione]
< 500 | Cn1c(=O)n(C2CCC(=O)NC2=O)c2ccc(C3CCN(CCN4CCC(C(=O)N5CCC(Nc6ncc(Cl)c(-c7cccc(-c8ccccc8)c7)n6)CC5)CC4)CC3)cc21 (centres unmarked) [Compound 45, 3-[5-[1-[2-[4-[4-[[5-chloro-4-(3-phenylphenyl)pyrimidin-2-yl]amino]piperidine-1-carbonyl]-1-piperidyl]ethyl]-4-piperidyl]-3-methyl-2-oxo-benzimidazol-1-yl]piperidine-2,6-dione]
< 500 | Cn1c(=O)n(C2CCC(=O)NC2=O)c2ccc(C3CCN(C(=O)CN4CCC(C(=O)N5CCC(Nc6ncc(Cl)c(-c7cccc(-c8ccccc8)c7)n6)CC5)CC4)CC3)cc21 (centres unmarked) [Compound 46, 3-(5-(1-(2-(4-(4-((4-([1,1′-biphenyl]-3-yl)-5-chloropyrimidin-2-yl)amino)piperidine-1-carbonyl)piperidin-1-yl)acetyl)piperidin-4-yl)-3-methyl-2-oxo-2,3-dihydro-1H-benzo[d]imidazol-1-yl)piperidine-2,6-dione]
< 500 | O=C1CCC(N2Cc3cc(C4CCN(CC5CCN(CC(=O)N6CCC(Nc7ncc(Cl)c(-c8cccc(-c9ccccc9)c8)n7)CC6)CC5)CC4)ccc3C2=O)C(=O)N1 (centres unmarked) [Compound 50]
500 to 1000 | O=C1CCC(Nc2ccc(C3CCN(CC4CCN(CC(=O)N5CCC(Nc6ncc(Cl)c(-c7cccc(-c8ccccc8)c7)n6)CC5)CC4)CC3)cc2)C(=O)N1 (centres unmarked) [Compound 53, 3-((4-(1-((1-(2-(4-((4-([1,1′-biphenyl]-3-yl)-5-chloropyrimidin-2-yl)amino)piperidin-1-yl)-2-oxoethyl)piperidin-4-yl)methyl)piperidin-4-yl)phenyl)amino)piperidine-2,6-dione]
< 500 | O=C1CCC(N2Cc3cc(C4CCN(C(=O)CN5CCC(C(=O)N6CCC(Nc7ncc(Cl)c(-c8cccc(-c9ccccc9)c8)n7)CC6)CC5)CC4)ccc3C2=O)C(=O)N1 (centres unmarked) [Compound 56, 3-(5-(1-(2-(4-(4-((4-([1,1′-biphenyl]-3-yl)-5-chloropyrimidin-2-yl)amino)piperidine-1-carbonyl)piperidin-1-yl)acetyl)piperidin-4-yl)-1-oxoisoindolin-2-yl)piperidine-2,6-dione]
500 to 1000 | O=C(COc1cccc2c1C(=O)N(C1CCC(=O)NC1=O)C2=O)NCCCCCCCCCC(=O)N1CCC(Nc2ncc(Cl)c(-c3cccc(-c4ccccc4)c3)n2)CC1 (centres unmarked) [Compound 66, N-(10-(4-((4-([1,1′-biphenyl]-3-yl)-5-chloropyrimidin-2-yl)amino)piperidin-1-yl)-10-oxodecyl)-2-((2-(2,6-dioxopiperidin-3-yl)-1,3-dioxoisoindolin-4-yl)oxy)acetamide]
< 500 | O=C(COc1ccc2c(c1)CN(C1CCC(=O)NC1=O)C2=O)NCCC(=O)N1CCC(C(=O)N2CCC(Nc3ncc(Cl)c(-c4cccc(-c5ccccc5)c4)n3)CC2)CC1 (centres unmarked) [Compound 67, N-(3-(4-(4-((4-([1,1′-biphenyl]-3-yl)-5-chloropyrimidin-2-yl)amino)piperidine-1-carbonyl)piperidin-1-yl)-3-oxopropyl)-2-((2-(2,6-dioxopiperidin-3-yl)-1-oxoisoindolin-5-yl)oxy)acetamide]
< 500 | O=C(COc1ccc2c(c1)CN(C1CCC(=O)NC1=O)C2=O)NCCCC(=O)N1CCC(C(=O)N2CCC(Nc3ncc(Cl)c(-c4cccc(-c5ccccc5)c4)n3)CC2)CC1 (centres unmarked) [Compound 68, N-(4-(4-(4-((4-([1,1′-biphenyl]-3-yl)-5-chloropyrimidin-2-yl)amino)piperidine-1-carbonyl)piperidin-1-yl)-4-oxobutyl)-2-((2-(2,6-dioxopiperidin-3-yl)-1-oxoisoindolin-5-yl)oxy)acetamide]
< 500 | O=C1CCC(N2Cc3cc(C4CCN(C5CCN(CC(=O)N6CCC[C@H](Nc7ncc(Cl)c(-c8cccc(-c9ccccc9)c8)n7)C6)CC5)CC4)ccc3C2=O)C(=O)N1 (stereo partly drawn) [Compound 70, 3-(5-(1′-(2-((S)-3-((4-([1,1′-biphenyl]-3-yl)-5-chloropyrimidin-2-yl)amino)piperidin-1-yl)-2-oxoethyl)-[1,4′-bipiperidin]-4-yl)-1-oxoisoindolin-2-yl)piperidine-2,6-dione]

From US20260355196A1, “INHIBITORS AND DEGRADERS OF PIP4K PROTEIN” (Larkspur Biosciences, Inc., priority 2023, published 2026)
